Measured values published in patent US20250206722A1, “SMALL MOLECULE INHIBITORS OF TEA DOMAIN FAMILY MEMBERS” (The Scripps Research Institute, priority 2022, published 2025).

What was measured:
Assay type in all cases: cell-based
NCI-H226 cells [1] = assay: NCI-H226 proliferation assay (Wuxi AppTec); details: Homo sapiens, 168 h, 7 days, CellTiter-Glo, top dose 10, 3-fold dilution, 9 doses
Description: […] Proliferation Assay (From Wuxi AppTec CO.):
Day −1: Seeding cells • (1) Equilibrate cell culture medium to 37° C. • (2) Remove and discard the culture medium. • (3) Briefly rinse the cell layer with PBS to remove all traces of serum that contains […]. • (4) Add 2-3 mL of Trypsin-EDTA solution to flask and observe cells under an inverted microscope until cell layer is dispersed. • (5) Add 6-8 mL of growth medium to terminate the digestion of Trypsin/EDTA. • (6) Centrifuge the mixture (Trypsin EDTA and the growth medium) at 1000 rpm for 5 mins. • (7) Discard the supernatant, suspend the cell precipitation with the fresh growth medium, then take 1 mL the cell suspension to count cells with Vi-cell XR cell viability analyzer. • (8) Adjust the cell density to 500 cells/well for 384-well plates. • (9) Add 50 µL/well volume cell suspension to the assay plate. • (10) Add […] media to the control columns. • (11) Incubate the plate at 37° C., 5% CO2 for overnight. Day 0: Compounds treatment • (1) Add cpds to each well by Tecan HP D300E. The top dose is […], 3-fold dilution and 9 doses. DMSO final concentration will be normalized to 0.2%. • (2) Incubate the assay plate at 37° C., 5% CO2 for 7 days. Day 7: Plate read • (1) Equilibrate the assay plate to the room temperature for nearly 30 minutes. • (2) Add […] CellTiter-Glo reagent to each well and shake the plate for 1 min, incubate 10 min and keep them from light. • (3) Detect the plate by EnVision. Data analysis:
Max: Average of the DMSO group Min: Average of medium group.

NCI-H226 cells [2] = assay: NCI-H226 proliferation assay (in house); details: Homo sapiens, 120 h, 5 days, Cell TiterGlo, 20-point 1:2 dilution from 20 μM
Method in brief: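 Viability by CellTiter-Glo luminescence after 5-day compound exposure at 37 °C, 5% CO2. Compounds added 24 h post-seeding (500 cells/well, RPMI 1640 with 10% FBS) as 20-point, 2-fold series from 20 μM final, triplicate wells.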

[3] = tested on: transcriptional activity of TEADs; assay: TEAD reporter assay (MCF7 TEAD-LUC reporter cells); details: Homo sapiens, 24 hours, BrightGlo luminescence
Method in brief: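 Luminescence (BrightGlo) was read after 24 h of compound treatment at 37 °C, 5 % CO2. Cells had been seeded at 5,000 per well in DMEM with 10 % FBS and insulin and rested 24 h first. Dosing used 20 points, 1:2 dilution from 20 μM final, triplicates.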

IMR32 cells = assay: IMR32 cytotoxicity assay; details: Homo sapiens, IMR-32, 72 h, 3 days, Cell TiterGlo
Description: IMR32 cells were obtained from American Type Culture Collection (ATCC, CCL-127) and cultured in DMEM (Corning, 10-013-CV) supplemented with 10% fetal bovine serum (Gibco, 10438-026) and 1% penicillin-streptomycin (Gibco, 15070063). Cells were trypsinized, resuspended in growth medium, and diluted to a concentrated of 20,000 cells/mL. 1,000 cells, 50 μL of cell suspension, per well were then plated in a white 384-well plate (Corning) and incubated at 37° C., 5% CO2. After 24 hours incubation, 100 nL of test compounds in DMSO, 20-point 1:2 dilution starting from 20 μM (final concentration) in triplicate, were transferred to each well using an Agilent Bravo instrument outfitted with a pintool head. Cells were incubated at 37° C., 5% CO2 for 3 days followed by the addition of 30 μL of Cell TiterGlo (Promega; diluted 1:6 in water) to each well and luminescence values recorded using an EnVision plate reader. […]

Molecule C=CC(=O)N1CCC(c2nccnc2Nc2ccc(C(F)(F)F)cc2)CC1 [Example 26, 1-[4-(3-{[4-(trifluoromethyl)phenyl]amino}pyrazin-2-yl)piperidin-1-yl]prop-2-en-1-one] has an IC50 (NCI-H226 cells [1]) of 0.02 µM, an IC50 (NCI-H226 cells [2]) of 0.009 µM and an IC50 [3] of 0.002 µM. The IC50 (IMR32 cells) was 10 µM.

Molecule C=CC(=O)N1CCN(c2nccnc2Nc2ccc(S(F)(F)(F)(F)F)cc2)CC1 [Example 31, 1-(4-(3-((4-(pentafluoro-16-sulfaneyl)phenyl)amino)pyrazin-2-yl)piperazin-1-yl)prop-2-en-1-one] has an IC50 (NCI-H226 cells [1]) of 0.018 µM, an IC50 (NCI-H226 cells [2]) of 0.0155 µM and an IC50 [3] of 0.00206 µM. For the same molecule, the IC50 (IMR32 cells) was over 5 µM.

C=CC(=O)N1CCN(c2nccnc2Nc2ccc(OC(F)(F)F)cc2)CC1 [Example 34, 1-(4-(3-((4-(trifluoromethoxy)phenyl)amino)pyrazin-2-yl)piperazin-1-yl)prop-2-en-1-one] showed an IC50 (NCI-H226 cells [1]) of 0.006 µM, an IC50 (NCI-H226 cells [2]) of 0.007 µM and an IC50 [3] of 0.002 µM. It also gave an IC50 (IMR32 cells) of over 10 µM.

In the case of C=CC(=O)N1CCN(c2nccnc2Oc2ccc(C(F)(F)F)cn2)CC1 [Example 73, 1-(4-(3-((5-(trifluoromethyl)pyridin-2-yl)oxy)pyrazin-2-yl)piperazin-1-yl)prop-2-en-1-one], the IC50 (NCI-H226 cells [1]) is reported as 0.032 µM, the IC50 (NCI-H226 cells [2]) is reported as 0.025 µM and the IC50 [3] is reported as 0.003 µM. The IC50 (IMR32 cells) was over 20 µM.

In the case of C=CC(=O)N1CCN(c2nc(C)cnc2Nc2ccc(C(F)(F)F)cc2)CC1 [Example 112, 1-(4-(6-methyl-3-((4-(trifluoromethyl)phenyl)amino)pyrazin-2-yl)piperazin-1-yl)prop-2-en-1-one], the IC50 (NCI-H226 cells [1]) is reported as 0.009 µM, the IC50 (NCI-H226 cells [2]) is reported as 0.011 µM and the IC50 [3] is reported as 0.0018 µM. For the same molecule, the IC50 (IMR32 cells) was 10 µM.

C=CC(=O)N1CCN(c2ccnc(Nc3ccc(C(F)(F)F)cc3)n2)CC1 [Example 123, 1-[4-(2-{[4-(trifluoromethyl)phenyl]amino}pyrimidin-4-yl)piperazin-1-yl]prop-2-en-1-one] showed an IC50 (NCI-H226 cells [2]) of 0.91 µM, an IC50 [3] of 0.279 µM and an IC50 (IMR32 cells) of 4.87 µM.

In the case of C=CC(=O)N1CCC(N(C)c2ccnc(Nc3ccc(C(F)(F)F)cc3)n2)CC1 [Example 124, 1-(4-(methyl(2-((4-(trifluoromethyl)phenyl)amino)pyrimidin-4-yl)amino)piperidin-1-yl)prop-2-en-1-one], the IC50 (NCI-H226 cells [2]) is reported as 4.64 µM, the IC50 [3] is reported as 0.331 µM and the IC50 (IMR32 cells) is reported as 4.2 µM.

For C=CC(=O)N1CCN(c2nccc(Nc3ccc(C(F)(F)F)cc3)n2)CC1 [Example 125, 1-[4-(4-{[4-(trifluoromethyl)phenyl]amino}pyrimidin-2-yl)piperazin-1-yl]prop-2-en-1-one], the IC50 (NCI-H226 cells [2]) was 2.52 µM, the IC50 [3] was 0.258 µM and the IC50 (IMR32 cells) was 7.06 µM.

In the case of C=CC(=O)N1CCN(c2ncccc2Nc2ccc(C(F)(F)F)cc2)CC1 [Example 134, 1-[4-(3-{[4-(trifluoromethyl)phenyl]amino}pyridin-2-yl)piperazin-1-yl]prop-2-en-1-one], the IC50 (NCI-H226 cells [2]) is reported as 0.023 µM, the IC50 [3] is reported as 0.00224 µM and the IC50 (IMR32 cells) is reported as over 10 µM.

Molecule C=CC(=O)N1CCN(c2cccnc2Nc2ccc(C(F)(F)F)cc2)CC1 [Example 143, 1-[4-(2-{[4-(trifluoromethyl)phenyl]amino}pyridin-3-yl)piperazin-1-yl]prop-2-en-1-one] has an IC50 (NCI-H226 cells [2]) of 0.017 µM, an IC50 [3] of 0.005 µM and an IC50 (IMR32 cells) of 20 µM.

CN(C)C/C=C/C(=O)N1CCN(c2nccnc2Nc2ccc(C(F)(F)F)cc2)CC1 [Example 167, 4-(dimethylamino)-1-(4-(3-((4-(trifluoromethyl)phenyl)amino)pyrazin-2-yl)piperazin-1-yl)but-2-en-1-one] was tested, and the IC50 (NCI-H226 cells [2]) was 0.108 µM, the IC50 [3] was 1 µM and the IC50 (IMR32 cells) was 10 µM.

Molecule CC(=O)N1CCN(c2nccnc2Nc2ccc(C(F)(F)F)cc2)CC1 [Example 168, 1-(4-(3-((4-(trifluoromethyl)phenyl)amino)pyrazin-2-yl)piperazin-1-yl)ethan-1-one] has an IC50 (NCI-H226 cells [2]) of over 10 µM, an IC50 [3] of 0.487 µM and an IC50 (IMR32 cells) of over 20 µM.

Work on O=C(C(F)Cl)N1CCN(c2nccnc2Nc2ccc(C(F)(F)F)cc2)CC1 (centres unmarked) [Example 169, 2-chloro-2-fluoro-1-(4-(3-((4-(trifluoromethyl)phenyl)amino)pyrazin-2-yl)piperazin-1-yl)ethan-1-one] yielded an IC50 (NCI-H226 cells [2]) of 0.037 µM, an IC50 [3] of 0.0131 µM and an IC50 (IMR32 cells) of over 10 µM.

In the case of O=C(CCl)N1CCN(c2nccnc2Nc2ccc(C(F)(F)F)cc2)CC1 [Example 170, 2-chloro-1-(4-(3-((4-(trifluoromethyl)phenyl)amino)pyrazin-2-yl)piperazin-1-yl)ethan-1-one], the IC50 (NCI-H226 cells [2]) is reported as 0.173 µM, the IC50 [3] is reported as 0.267 µM and the IC50 (IMR32 cells) is reported as 0.76 µM.

Work on N#CCC(=O)N1CCN(c2nccnc2Nc2ccc(C(F)(F)F)cc2)CC1 [Example 171, 3-oxo-3-(4-(3-((4-(trifluoromethyl)phenyl)amino)pyrazin-2-yl)piperazin-1-yl)propanenitrile] yielded an IC50 (NCI-H226 cells [2]) of 5.25 µM, an IC50 [3] of 2.22 µM and an IC50 (IMR32 cells) of over 20 µM.

With O=C(C1CO1)N1CCN(c2nccnc2Nc2ccc(C(F)(F)F)cc2)CC1 (centres unmarked) [Example 172, oxiran-2-yl(4-(3-((4-(trifluoromethyl)phenyl)amino)pyrazin-2-yl)piperazin-1-yl)methanone] the IC50 (NCI-H226 cells [2]) was 1.4 µM, the IC50 [3] was 0.0032 µM and the IC50 (IMR32 cells) was 10 µM.

C#CC(=O)N1CCN(c2nccnc2Nc2ccc(C(F)(F)F)cc2)CC1 [Example 173, 1-(4-(3-((4-(trifluoromethyl)phenyl)amino)pyrazin-2-yl)piperazin-1-yl)prop-2-yn-1-one] showed an IC50 (NCI-H226 cells [2]) of 0.507 µM, an IC50 [3] of 0.0365 µM and an IC50 (IMR32 cells) of 0.202 µM.

For CC#CC(=O)N1CCN(c2nccnc2Nc2ccc(C(F)(F)F)cc2)CC1 [Example 174, 1-(4-(3-((4-(trifluoromethyl)phenyl)amino)pyrazin-2-yl)piperazin-1-yl)but-2-yn-1-one], the IC50 (NCI-H226 cells [2]) was over 20 µM, the IC50 [3] was over 20 µM and the IC50 (IMR32 cells) was over 10 µM.

For N#CCN1CCN(c2nccnc2Nc2ccc(C(F)(F)F)cc2)CC1 [Example 175, 2-(4-(3-((4-(trifluoromethyl)phenyl)amino)pyrazin-2-yl)piperazin-1-yl)acetonitrile], the IC50 (NCI-H226 cells [2]) was over 10 µM, the IC50 [3] was 0.833 µM and the IC50 (IMR32 cells) was over 20 µM.

CC(C)(C#N)N1CCN(c2nccnc2Nc2ccc(C(F)(F)F)cc2)CC1 [Example 176, 2-methyl-2-(4-(3-((4-(trifluoromethyl)phenyl)amino)pyrazin-2-yl)piperazin-1-yl)propanenitrile] showed an IC50 (NCI-H226 cells [2]) of 9.95 µM, an IC50 [3] of 2.5 µM and an IC50 (IMR32 cells) of over 10 µM.

Work on C#CCN(C)C/C=C/C(=O)N1CCN(c2nccnc2Nc2ccc(C(F)(F)F)cc2)CC1 [Example 179, (E)-4-(methyl(prop-2-yn-1-yl)amino)-1-(4-(3-((4-(trifluoromethyl)phenyl)amino)pyrazin-2-yl)piperazin-1-yl)but-2-en-1-one] yielded an IC50 (NCI-H226 cells [2]) of 2.48 µM, an IC50 [3] of over 10 µM and an IC50 (IMR32 cells) of over 20 µM.

Work on C=C(CN1CCCC1)C(=O)N1CCN(c2nccnc2Nc2ccc(C(F)(F)F)cc2)CC1 [Example 189, 2-(pyrrolidin-1-ylmethyl)-1-(4-(3-((4-(trifluoromethyl)phenyl)amino)pyrazin-2-yl)piperazin-1-yl)prop-2-en-1-one] yielded an IC50 (NCI-H226 cells [2]) of 5.36 µM, an IC50 [3] of 2.12 µM and an IC50 (IMR32 cells) of 9.3 µM.

Work on C=CC(=O)N(C)CCOc1nccnc1Nc1ccc(C(F)(F)F)cc1 [Example 191, N-methyl-N-(2-((3-((4-(trifluoromethyl)phenyl)amino)pyrazin-2-yl)oxy)ethyl)acrylamide] yielded an IC50 (NCI-H226 cells [2]) of 0.047 µM, an IC50 [3] of 0.0043 µM and an IC50 (IMR32 cells) of 10 µM.

C=CC(=O)NCCOc1nccnc1Nc1ccc(C(F)(F)F)cc1 [Example 192, N-(2-((3-((4-(trifluoromethyl)phenyl)amino)pyrazin-2-yl)oxy)ethyl)acrylamide] showed an IC50 (NCI-H226 cells [2]) of 1.78 µM, an IC50 [3] of 0.0179 µM and an IC50 (IMR32 cells) of over 20 µM.
